How the values were obtained:
Experiment in all cases: microbe, parasite or virus in culture
Format in all cases: cell-based, SARS-CoV-2
[1] = tested on: pseudovirus carrying spike protein of the alpha variant; conditions: read-out: EC50 (nM) (Alpha)
[2] = tested on: pseudovirus carrying spike protein of the beta variant; conditions: read-out: EC50 (nM) (Beta)
[3] = tested on: pseudovirus carrying spike protein of the delta variant; conditions: read-out: EC50 (nM) (Delta)
[4] = tested on: pseudovirus carrying spike protein of the omicron variant; conditions: read-out: EC50 (nM) (Omicron)
[5] = tested on: pseudoviruses carrying spike proteins of different variants; conditions: Severe acute respiratory syndrome coronavirus 2, read-out: EC50 values against different variants (span)

SMILES | EC50 [1] | EC50 [2] | EC50 [3] | EC50 [4] | EC50 [5]
C[C@@H]1CCO[C@H]2Cn3cc(C(=O)NCc4ccc(F)cc4F)c(=O)c(O)c3C(=O)N12 [Dolutegravir sodium] | 15.8 nM | 10.2 nM | 3 nM | 2.6 nM | 10.2 to 22.9 nM
Cc1cc(C#N)cc(C)c1Oc1nc(Nc2ccc(C#N)cc2)nc(N)c1Br [Etravirine] | 4.9 nM | 4.5 nM | 2.9 nM | 3 nM | 4.5 to 5.8 nM
